Data on four compounds can be found in patent US8669233B2, “Combination of compounds for treating or preventing skin diseases” (Galderma Research & Development, priority 2009, dated 2014).

For experiment [1], the system named is arachidonic acid-induced mouse ear edema. Put plainly: Arachidonic acid-induced mouse ear edema test, single topical application. Type of experiment: in vivo, Balb/c mice. Particulars: 4% arachidonic acid. As to the method:
Evaluation of the Anti-Inflammatory Activity of Ivermectin and of Brimonidine after a Single Topical Application in the Arachidonic Acid-Induced Mouse Ear Edema Test on Balb/c Mice
Arachidonic acid is dissolved in a mixture of THF/methanol at 4%.
Ivermectin is dissolved in the solution of arachidonic acid (AA) and tested at the concentration of 1%.
20 μl of the solution are applied to the internal surface of the right ear.
The thickness of the ear is measured at T+1 h, T+2 h and T+4 h.
FIG. 1 represents the average measurement of the thickness of the ear edema, i.e. the average measurement of the thickness of the ear after treatment, from which is subtracted the average measurement of the thickness of the ear obtained with the control (nontreated) group, this being after treatment with 4% arachidonic acid ( ? ), 1% ivermectin (□), 0.2% brimonidine ( ? ), and the combination of ivermectin and brimonidine ( ? ).

Experiment [2] has as its system TPA-induced mouse ear edema. The experiment is described as follows: TPA-induced mouse ear edema test, single topical application. Particulars: TPA 0.01%, T+6 h; for reduction in the ear edema (TPA): single topical application. Type of experiment: in vivo, Balb/c mice. As to the method: The test compounds are diluted in the TPA solution. […] Brimonidine is added at the concentration of 0.2%. […] FIG. 2 represents the average measurement of the ear edema thickness as a function of the dose of test compound as %, i.e. the average measurement of the ear thickness after treatment, from which is subtracted the average measurement of the thickness of the ear obtained with the control (nontreated) group, […]

Turning to `COc1ccc2c(c1)c(CC(=O)O)c(C)n2C(=O)c1ccc(Cl)cc1` [Indomethacin], the “inhibition of the ear edema caused by arachidonic acid” value in experiment [1] (indomethacin at 5%, topical, Balb/c mice) was 95%. Regarding `Brc1c(NC2=NCCN2)ccc2nccnc12` [brimonidine], the “reduction of the mouse ear edema (TPA)” value in experiment [2] (brimonidine alone 0.2%) is given as 50%. As for `CCCCC(=O)O[C@]1(C(=O)CO)[C@@H](C)C[C@H]2[C@@H]3CCC4=CC(=O)C=C[C@]4(C)[C@@]3(F)[C@@H](O)C[C@@]21C` [β-methasone valerate (BMV), β-methasone valerate], in experiment [2] (BMV at 0.01%), the “inhibition of the mouse ear edema (TPA)” value amounted to 89%. Regarding Ivermectin, the “reduction of the ear edema caused by arachidonic acid” value in experiment [1] (ivermectin alone 1%, single topical application) came out at 56%. Also, the “reduction in the ear edema (TPA)” value in experiment [2] (ivermectin 0.3%) is reported as 57%; in experiment [2] (ivermectin 1%), 90%.
